Assays:
B16F10 cells [1] = test: B16F10 footpad model, GLA i.t. plus anti-CD40 i.p. (Example 6); assay type: in vivo, C57B1/6 mice; conditions: GLA alone: 5 μg GLA-SE/2% SE i.t. from Day 4 every 3-4 days; FIG. 8A
Procedure: Mice were given i.t. administrations of 5 μg GLA-SE/2% SE (or 2% SE vehicle control) plus i.p. administrations of anti-CD40 (or 2A3 control antibody) at 100 μg, starting on Day 4 and every 3-4 days thereafter until the end of study (FIG. 8A).

B16F10 cells [2] = test: B16F10 model, GLA i.t. plus anti-CD40 i.t., suboptimal doses (Example 6); assay type: in vivo, mice; conditions: GLA alone: 2 μg GLA-SE/2% SE i.t. on Day 8 and 15 post-tumor injection; FIG. 8B
Procedure: To determine whether anti-CD40 exerted anti-tumor effects in the tumor microenvironment, tumor-bearing mice were given i.t. administrations of 2 μg GLA-SE/2% SE (or 2% SE vehicle control) on Day 8 and 15 post-tumor injection and i.t. administrations of 50 μg anti-CD40 (or 2A3 control antibody) on Day 5 and 12 post-tumor injection (FIG. 8B). Suboptimal doses for GLA and anti-CD40 were given to avoid masking of a possible synergistic effect of the combination.

B16F10 cells [3] = test: B16F10 footpad model, GLA plus checkpoint inhibitor (Example 5); assay type: in vivo, C57B1/6 mice; conditions: GLA alone: 5 μg GLA-SE/2% SE i.t. from Day 4 every 3-4 days; FIG. 7B
Procedure: Mice were given i.t. administrations of 5 μg GLA-SE/2% SE (or 2% SE vehicle control) plus intraperitoneal (i.p.) administrations of a CPI [anti-PDL1, anti-PD1, anti-CTLA4 (clone 9H10), anti-CTLA4 (clone 9D9), or LTF2 control antibody] at 100 μg starting on Day 4 and every 3-4 days thereafter until the end of study.

B16F10 cells [4] = test: B16F10 footpad model, optimal time to begin GLA administration (Example 5); assay type: in vivo, C57BL/6 mice; conditions: 5 μg GLA-SE/2% SE i.t. starting Day 4 post-tumor injection, every 3-4 days; FIG. 7A
Procedure: To determine the optimal time to begin GLA administration, female C57BL/6 mice (n=5 per group) were inoculated with 5×10^5 B16F10 cells, subcutaneously in the right footpad on Day 0. Mice were given intratumoral (i.t.) administrations of 5 μg GLA-SE/2% SE (or 2% SE vehicle control) on Day 4, Day 9, or Day 14, and every 3-4 days thereafter until the end of study.

B16 melanoma cells = test: Murine B16 melanoma model, subcutaneous inoculation (Example 1); assay type: in vivo, mice; conditions: 5 μg GLA-SE i.m. on Day 0, Day 9 and Day 14; relative to saline; FIG. 2
Procedure: The B16 murine melanoma model is an accepted animal model for both solid tumor formation as well as metastasis (see e.g., Curr Protoc Immunol. 2001 May; CHAPTER 20: Unit-20.1. doi:10.1002/0471142735.im2001s39). In this study, mice were inoculated subcutaneously with 3×10^5 B16 cells on Day minus 9 (n=10 per group). Mice were treated with either saline or 5 μg GLA-SE i.m. on Day 0, Day 9 and Day 14.

CCCCCCCCCCCCCC(=O)O[C@H](CCCCCCCCCCC)CC(=O)O[C@@H]1[C@@H](NC(=O)C[C@H](CCCCCCCCCCC)OC(=O)CCCCCCCCCCCCC)[C@H](OC[C@H]2O[C@H](O)[C@H](NC(=O)C[C@H](O)CCCCCCCCCCC)[C@@H](OC(=O)C[C@H](O)CCCCCCCCCCC)[C@@H]2O)O[C@H](CO)[C@H]1OP(=O)(O)O [GLA, glucopyranosyl lipid A]
B16F10 tumor growth (B16F10 cells [1]): delayed B16F10 tumor growth | tumor growth (B16F10 cells [2]): delayed tumor growth | B16F10 tumor growth (B16F10 cells [3]): delayed B16F10 tumor growth | B16F10 tumor growth (B16F10 cells [4]): delayed B16F10 tumor growth | percent survival (B16 melanoma cells): improved survival rate
